Assay results from patent US11370798B2 (Vertex Pharmaceuticals Incorporated, priority 2012, dated 2022).

Test system: HCT116 colorectal cancer cells
Assay: Cisplatin sensitization assay (96 h cell viability MTS);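 further: Test-compound concentration that lowers the Cisplatin IC50 by a set fold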
Type: cell-based
Conditions: compound and Cisplatin added simultaneously, Cisplatin sensitization value
How it was run: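 Viability read by MTS (1 h at 37° C) after 96 h co-exposure at 37° C, 5% CO2. Test compound and cisplatin were dosed simultaneously in a full concentration matrix, each 2-fold serially diluted from 10 μM final; sensitization values binned in μM.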

Row | SMILES | Cisplatin Sensitization Assay
1 | CC(C)(O)C1CCN(c2ccncc2NC(=O)c2c(N)nn3cc(Cl)cnc23)CC1 [I-N-69, 2-amino-6-chloro-N-(4-(4-(2-hydroxypropan-2-yl)piperidin-1-yl)pyridin-3-yl)pyrazolo[1,5-a]pyrimidine-3-carboxamide] | +++ (Cisplatin sensitization value of <0.02 μM)
2 | Nc1nn2cc(Cl)cnc2c1C(=O)Nc1cnccc1N1CCNC(C(F)(F)F)C1 (stereo not shown) [I-N-70, 2-amino-6-chloro-N-(4-(3-(trifluoromethyl)piperazin-1-yl)pyridin-3-yl)pyrazolo[1,5-a]pyrimidine-3-carboxamide] | ++ (Cisplatin sensitization value>0.02 μM but <0.2 μM)
3 | Nc1nn2cc(Cl)cnc2c1C(=O)Nc1cnccc1N1CCN2CCC[C@H]2C1 [I-N-71, (S)-2-amino-6-chloro-N-(4-(hexahydropyrrolo[1,2-a]pyrazin-2(1H)-yl)pyridin-3-yl)pyrazolo[1,5-a]pyrimidine-3-carboxamide] | +++ (Cisplatin sensitization value of <0.02 μM)
4 | CC1CN(C)CCN1c1ccncc1NC(=O)c1c(N)nn2cc(Cl)cnc12 (stereo not shown) [I-N-72, 2-amino-6-chloro-N-(4-(2,4-dimethylpiperazin-1-yl)pyridin-3-yl)pyrazolo[1,5-a]pyrimidine-3-carboxamide] | +++ (Cisplatin sensitization value of <0.02 μM)
5 | COC1CCN(c2ccncc2NC(=O)c2c(N)nn3cc(Cl)cnc23)CC1 [I-N-73, 2-amino-6-chloro-N-(4-(4-methoxypiperidin-1-yl)pyridin-3-yl)pyrazolo[1,5-a]pyrimidine-3-carboxamide] | +++ (Cisplatin sensitization value of <0.02 μM)
6 | COC(=O)C1CCN(c2ccncc2NC(=O)c2c(N)nn3cc(Cl)cnc23)CC1 [I-N-74, methyl-1-(3-(2-amino-6-chloropyrazolo[1,5-a]pyrimidine-3-carboxamido)pyridin-4-yl)piperidine-4-carboxylate] | +++ (Cisplatin sensitization value of <0.02 μM)
7 | Nc1nn2cc(Cl)cnc2c1C(=O)Nc1cnccc1N1CCn2cncc2C1 [I-N-75, 2-amino-6-chloro-N-(4-(5,6-dihydroimidazo[1,5-a]pyrazin-7(8H)-yl)pyridin-3-yl)pyrazolo[1,5-a]pyrimidine-3-carboxamide] | +++ (Cisplatin sensitization value of <0.02 μM)
8 | CN1CCN(c2ccncc2NC(=O)c2c(N)nn3cc(C(C)(C)C#N)cnc23)CC1 [I-N-76, 2-amino-6-(2-cyanopropan-2-yl)-N-(4-(4-methylpiperazin-1-yl)pyridin-3-yl)pyrazolo[1,5-a]pyrimidine-3-carboxamide] | +++ (Cisplatin sensitization value of <0.02 μM)
9 | N#CCc1cnc2c(C(=O)Nc3cnccc3N3CCCC3)c(N)nn2c1 [I-N-77, 2-amino-6-(cyanomethyl)-N-(4-(pyrrolidin-1-yl)pyridin-3-yl)pyrazolo[1,5-a]pyrimidine-3-carboxamide] | + (Cisplatin sensitization value>0.2 μM but <5 μM)
10 | N#CCc1cnc2c(C(=O)Nc3cnccc3N3CCCCCC3)c(N)nn2c1 [I-N-79, 2-amino-N-(4-(azepan-1-yl)pyridin-3-yl)-6-(cyanomethyl)pyrazolo[1,5-a]pyrimidine-3-carboxamide] | ++ (Cisplatin sensitization value>0.02 μM but <0.2 μM)
11 | CN1CCN(c2c(F)cncc2NC(=O)c2c(N)nn3cc(CC#N)cnc23)CC1 [I-N-80, 2-amino-6-(cyanomethyl)-N-(5-fluoro-4-(4-methylpiperazin-1-yl)pyridin-3-yl)pyrazolo[1,5-a]pyrimidine-3-carboxamide] | ++ (Cisplatin sensitization value>0.02 μM but <0.2 μM)
12 | N#CCc1cnc2c(C(=O)Nc3cnccc3N3CCOCC3)c(N)nn2c1 [I-N-81, 2-amino-6-(cyanomethyl)-N-(4-morpholinopyridin-3-yl)pyrazolo[1,5-a]pyrimidine-3-carboxamide] | +++ (Cisplatin sensitization value of <0.02 μM)
13 | CN1CCN(c2ccncc2NC(=O)c2c(N)nn3cc(CC#N)cnc23)CC1 [I-N-82, 2-amino-6-(cyanomethyl)-N-(4-(4-methylpiperazin-1-yl)pyridin-3-yl)pyrazolo[1,5-a]pyrimidine-3-carboxamide] | ++ (Cisplatin sensitization value>0.02 μM but <0.2 μM)
14 | N#CCc1cnc2c(C(=O)Nc3cnccc3N3CCC(O)CC3)c(N)nn2c1 [I-N-83, 2-amino-6-(cyanomethyl)-N-(4-(4-hydroxypiperidin-1-yl)pyridin-3-yl)pyrazolo[1,5-a]pyrimidine-3-carboxamide] | ++ (Cisplatin sensitization value>0.02 μM but <0.2 μM)
15 | N#CCc1cnc2c(C(=O)Nc3cnccc3N3CCCCC3)c(N)nn2c1 [I-N-84, 2-amino-6-(cyanomethyl)-N-(4-(piperidin-1-yl)pyridin-3-yl)pyrazolo[1,5-a]pyrimidine-3-carboxamide] | +++ (Cisplatin sensitization value of <0.02 μM)
16 | CN1CCN(c2c(Cl)cncc2NC(=O)c2c(N)nn3cc(F)cnc23)CC1 [I-N-85, 2-amino-N-(5-chloro-4-(4-methylpiperazin-1-yl)pyridin-3-yl)-6-fluoropyrazolo[1,5-a]pyrimidine-3-carboxamide] | ++ (Cisplatin sensitization value>0.02 μM but <0.2 μM)
17 | Nc1nn2cc(Cl)cnc2c1C(=O)Nc1cnccc1N1CCC(N)CC1 [I-N-86, 2-amino-N-(4-(4-aminopiperidin-1-yl)pyridin-3-yl)-6-chloropyrazolo[1,5-a]pyrimidine-3-carboxamide] | +++ (Cisplatin sensitization value of <0.02 μM)
18 | CNC1CCN(c2ccncc2NC(=O)c2c(N)nn3cc(Cl)cnc23)CC1 [I-N-87, 2-amino-6-chloro-N-(4-(4-(methylamino)piperidin-1-yl)pyridin-3-yl)pyrazolo[1,5-a]pyrimidine-3-carboxamide] | ++ (Cisplatin sensitization value>0.02 μM but <0.2 μM)
19 | Nc1nn2cc(Cl)cnc2c1C(=O)Nc1cnccc1N1CCNCC1 [I-N-88, 2-amino-6-chloro-N-(4-(piperazin-1-yl)pyridin-3-yl)pyrazolo[1,5-a]pyrimidine-3-carboxamide] | ++ (Cisplatin sensitization value>0.02 μM but <0.2 μM)
20 | N#CCc1cnc2c(C(=O)Nc3cnccc3N3CCNCC3)c(N)nn2c1 [I-N-89, 2-amino-6-(cyanomethyl)-N-(4-(piperazin-1-yl)pyridin-3-yl)pyrazolo[1,5-a]pyrimidine-3-carboxamide] | ++ (Cisplatin sensitization value>0.02 μM but <0.2 μM)
21 | N#CCc1cnc2c(C(=O)Nc3cnccc3N3CCOC(CN)C3)c(N)nn2c1 (stereo not shown) [I-N-90, 2-amino-N-(4-(2-(aminomethyl)morpholino)pyridin-3-yl)-6-(cyanomethyl)pyrazolo[1,5-a]pyrimidine-3-carboxamide] | + (Cisplatin sensitization value>0.2 μM but <5 μM)
22 | NCC1CCN(c2ccncc2NC(=O)c2c(N)nn3cc(Cl)cnc23)CC1 [I-N-91, 2-amino-N-(4-(4-(aminomethyl)piperidin-1-yl)pyridin-3-yl)-6-chloropyrazolo[1,5-a]pyrimidine-3-carboxamide] | ++ (Cisplatin sensitization value>0.02 μM but <0.2 μM)
